system: MOLM-13 cells; test: MOLM-13 Cell Proliferation Assay (indicator of DHODH inhibition); type: cell-based; settings: Homo sapiens, 72 Hours of culture, CellTiter-Glo, no uridine
Procedure, shortened: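 Proliferation readout via CellTiter-Glo luminescence after 72 h compound treatment (37 °C, 5% CO2, 0.5% DMSO) of MOLM-13 cells seeded at 10^4 per well in RPMI 1640/10% FBS, used as a DHODH-inhibition indicator since these cells rely on de novo pyrimidine synthesis.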

IC50 [nM] | Structure (SMILES)
1.1 | N#Cc1cc(C(F)(F)F)nc(N2CCc3c([nH]c4ccc(Cl)cc34)[C@@H]2c2ccc(N3CCOCC3)nc2)n1 [Compound 433, 2-{(1S)-6-chloro-1-[6-(morpholin-4-yl)pyridin-3-yl]-1,3,4,9-tetrahydro-2H-pyrido[3,4-b]indol-2-yl}-6-(trifluoromethyl)pyrimidine-4-carbonitrile]
1.2 | N#Cc1cc(C(F)(F)F)nc(N2CCc3c([nH]c4ccc(Cl)cc34)[C@@H]2c2cnc(N3CCOCC3)nc2)n1 [Compound 434, 2-{(1S)-6-chloro-1-[2-(morpholin-4-yl)pyrimidin-5-yl]-1,3,4,9-tetrahydro-2H-pyrido[3,4-b]indol-2-yl}-6-(trifluoromethyl)pyrimidine-4-carbonitrile]
0.6 | Cc1ccc([C@H]2c3[nH]c4ccc(Cl)cc4c3CCN2c2nc(N3CCOCC3)nc(C(F)(F)F)n2)c(F)c1F [Compound 436, (1S)-6-chloro-1-(2,3-difluoro-4-methylphenyl)-2-[4-(morpholin-4-yl)-6-(trifluoromethyl)-1,3,5-triazin-2-yl]-2,3,4,9-tetrahydro-1H-pyrido[3,4-b]indole]
1.8 | Cc1ccc(C2c3[nH]c4ccc(Cl)cc4c3CCN2c2nc(C)nc(C(F)(F)F)n2)cc1 (stereo not drawn) [Compound 437, 6-chloro-1-(4-methylphenyl)-2-[4-methyl-6-(trifluoromethyl)-1,3,5-triazin-2-yl]-2,3,4,9-tetrahydro-1H-pyrido[3,4-b]indole]
0.6 | Cc1nc(N2CCc3c([nH]c4ccc(Cl)cc34)C2c2ccc(C)c(F)c2F)nc(C(F)(F)F)n1 (stereo not drawn) [Compound 438, 6-chloro-1-(2,3-difluoro-4-methylphenyl)-2-[4-methyl-6-(trifluoromethyl)-1,3,5-triazin-2-yl]-2,3,4,9-tetrahydro-1H-pyrido[3,4-b]indole]
1.9 | Cc1nc(N2CCc3c([nH]c4ccc(Cl)cc34)C2c2ccc(N3CCOCC3)nc2)nc(C(F)(F)F)n1 (stereo not drawn) [Compound 439, 6-chloro-2-[4-methyl-6-(trifluoromethyl)-1,3,5-triazin-2-yl]-1-[6-(morpholin-4-yl)pyridin-3-yl]-2,3,4,9-tetrahydro-1H-pyrido[3,4-b]indole]
2.1 | Cc1nc(N2CCc3c([nH]c4ccc(Cl)cc34)C2c2cnc(N3CCOCC3)nc2)nc(C(F)(F)F)n1 (stereo not drawn) [Compound 440, 6-chloro-2-[4-methyl-6-(trifluoromethyl)-1,3,5-triazin-2-yl]-1-[2-(morpholin-4-yl)pyrimidin-5-yl]-2,3,4,9-tetrahydro-1H-pyrido[3,4-b]indole]
5.7 | Cc1ccc([C@H]2c3[nH]c4ccc(Cl)cc4c3CCN2c2nc(N(C)C)nc(C(F)(F)F)n2)cc1 [Compound 441, 4-[(1S)-6-chloro-1-(4-methylphenyl)-1,3,4,9-tetrahydro-2H-pyrido[3,4-b]indol-2-yl]-N,N-dimethyl-6-(trifluoromethyl)-1,3,5-triazin-2-amine]
3.4 | Cc1ccc([C@H]2c3[nH]c4ccc(Cl)cc4c3CCN2c2nc(N3CCOCC3)nc(C(F)(F)F)n2)cc1 [Compound 442, (1S)-6-chloro-1-(4-methylphenyl)-2-[4-(morpholin-4-yl)-6-(trifluoromethyl)-1,3,5-triazin-2-yl]-2,3,4,9-tetrahydro-1H-pyrido[3,4-b]indole]
3.1 | CN(C)c1nc(N2CCc3c([nH]c4ccc(Cl)cc34)[C@@H]2c2ccc(N3CCOCC3)nc2)nc(C(F)(F)F)n1 [Compound 443, 4-{(1S)-6-chloro-1-[6-(morpholin-4-yl)pyridin-3-yl]-1,3,4,9-tetrahydro-2H-pyrido[3,4-b]indol-2-yl}-N,N-dimethyl-6-(trifluoromethyl)-1,3,5-triazin-2-amine]
5.8 | CN(C)c1nc(N2CCc3c([nH]c4ccc(Cl)cc34)[C@@H]2c2cnc(N3CCOCC3)nc2)nc(C(F)(F)F)n1 [Compound 444, 4-{(1S)-6-chloro-1-[2-(morpholin-4-yl)pyrimidin-5-yl]-1,3,4,9-tetrahydro-2H-pyrido[3,4-b]indol-2-yl}-N,N-dimethyl-6-(trifluoromethyl)-1,3,5-triazin-2-amine]
5.2 | FC(F)(F)c1nc(N2CCOCC2)nc(N2CCc3c([nH]c4ccc(Cl)cc34)[C@@H]2c2cnc(N3CCOCC3)nc2)n1 [Compound 445, (1S)-6-chloro-1-[2-(morpholin-4-yl)pyrimidin-5-yl]-2-[4-(morpholin-4-yl)-6-(trifluoromethyl)-1,3,5-triazin-2-yl]-2,3,4,9-tetrahydro-1H-pyrido[3,4-b]indole]
2.7 | FC(F)(F)c1nc(N2CCOCC2)nc(N2CCc3c([nH]c4ccc(Cl)cc34)[C@@H]2c2ccc(N3CCOCC3)nc2)n1 [Compound 446, (1S)-6-chloro-1-[6-(morpholin-4-yl)pyridin-3-yl]-2-[4-(morpholin-4-yl)-6-(trifluoromethyl)-1,3,5-triazin-2-yl]-2,3,4,9-tetrahydro-1H-pyrido[3,4-b]indole]
4.8 | N#Cc1ccc(C2c3[nH]c4ccc(Cl)cc4c3CCN2c2nccc(C(F)(F)F)n2)cc1 (stereo not drawn) [Compound 447, 4-{6-chloro-2-[4-(trifluoromethyl)pyrimidin-2-yl]-2,3,4,9-tetrahydro-1H-pyrido[3,4-b]indol-1-yl}benzonitrile]
15.2 | Cc1nc(C)nc(N2CCc3c([nH]c4ccc(Cl)cc34)C2c2ccc(Cl)cc2)n1 (stereo not drawn) [Compound 449, 6-chloro-1-(4-chlorophenyl)-2-(4,6-dimethyl-1,3,5-triazin-2-yl)-2,3,4,9-tetrahydro-1H-pyrido[3,4-b]indole]
29.8 | Cc1nc(C)nc(N2CCc3c([nH]c4ccc(Cl)cc34)C2c2ccc(F)cc2)n1 (stereo not drawn) [Compound 450, 6-chloro-2-(4,6-dimethyl-1,3,5-triazin-2-yl)-1-(4-fluorophenyl)-2,3,4,9-tetrahydro-1H-pyrido[3,4-b]indole]
8 | Cc1nc(C)nc(N2CCc3c([nH]c4ccc(Cl)cc34)C2c2ccc(F)cc2F)n1 (stereo not drawn) [Compound 451, 6-chloro-1-(2,4-difluorophenyl)-2-(4,6-dimethyl-1,3,5-triazin-2-yl)-2,3,4,9-tetrahydro-1H-pyrido[3,4-b]indole]
5.1 | Cc1ccc(C2c3[nH]c4ccc(Cl)cc4c3CCN2c2nc(C)nc(C)n2)c(F)c1 (stereo not drawn) [Compound 452, 6-chloro-2-(4,6-dimethyl-1,3,5-triazin-2-yl)-1-(2-fluoro-4-methylphenyl)-2,3,4,9-tetrahydro-1H-pyrido[3,4-b]indole]
4.9 | Cc1nc(C)nc(N2CCc3c([nH]c4ccc(Cl)cc34)C2c2ccc(C#N)cc2F)n1 (stereo not drawn) [Compound 453, 4-[6-chloro-2-(4,6-dimethyl-1,3,5-triazin-2-yl)-2,3,4,9-tetrahydro-1H-pyrido[3,4-b]indol-1-yl]-3-fluorobenzonitrile]
0.7 | FC(F)(F)c1cc(C(F)(F)F)nc(N2CCc3c([nH]c4ccc(-n5nccn5)cc34)C2c2ccc(N3CCOCC3)nc2)n1 (stereo not drawn) [Compound 454, 2-[4,6-bis(trifluoromethyl)pyrimidin-2-yl]-1-[6-(morpholin-4-yl)pyridin-3-yl]-6-(2H-1,2,3-triazol-2-yl)-2,3,4,9-tetrahydro-1H-pyrido[3,4-b]indole]
5.2 | Cc1cnn(-c2ccc3[nH]c4c(c3c2)CCN(c2nc(C(F)(F)F)cc(C(F)(F)F)n2)C4c2ccc(N3CCOCC3)nc2)n1 (stereo not drawn) [Compound 455, 2-[4,6-bis(trifluoromethyl)pyrimidin-2-yl]-6-(4-methyl-2H-1,2,3-triazol-2-yl)-1-[6-(morpholin-4-yl)pyridin-3-yl]-2,3,4,9-tetrahydro-1H-pyrido[3,4-b]indole]

Source: patent US20250186437A1, “CARBOLINE COMPOUNDS AND USE THEREOF” (PTC Therapeutics, Inc., priority 2021, published 2025)
